Results published in US10952940B2, “Reagents and methods for mineralization of tooth enamel” (UNIVERSITY OF WASHINGTON, priority 2016, dated 2021).

Assays:
[1] = In vitro re-mineralization of tea-stained human tooth using the peptide solution, optical images and line profile analysis
Method: A caries-free human tooth was sterilized in 1% bleach solution for 24 hours then removed and vigorously rinsed with deionized water. The root site was removed and the crown sectioned vertically using a diamond blade. Pictures were taken with a camera attached to an optical microscope.
The exposed dentine sites were etched with 35% phosphoric acid (Ultraetch™) for 60 seconds (to facilitate the stain intake). The etching gel was removed by rinsing the sample with distilled water for 3 minutes. The staining solution was prepared by boiling 2 g of tea in 100 ml of deionized water for 5 minutes, which was then cooled down to room temperature and filtered. The tooth was soaked in the staining solution and incubated at 37° C. at 150 rpm for 24 hours. The tooth was then removed from the staining solution and sonicated for 30 seconds in deionized water (sonic bath) to remove the excess amount of tea particles attached to tooth extrinsically. The sectioned tooth was cut vertically in half again to form two quarter sections of the tooth. FIGS. 2(a) to 2(g) show various sections of the tooth after the staining. […] Figures (b), (c) and (d) show different views of the left quarter of the tooth that was sectioned from the tooth. […]

[2] = Solution mineralization approach on tetracycline-stained teeth, Mean Pixel Intensity; parameters: species or system human; conditions: repeated rounds of remineralization
Source text: Human teeth, donated by the University of Washington School of Dentistry (Seattle, Wash., USA), were selected for their clean, smooth surfaces. The teeth were sterilized in bleach, cut on a diamond blade to remove the root, and halved. A thin layer of the enamel surface was then cut on one of the halves parallel to the previous cut, such that the dentin layer could be seen without completely removing the enamel on the tooth. This allowed imaging of the enamel surfaces after the mineralization experiment without the problem of surface reflection encountered in previous experiments, in addition to a more parallel surface from which to compare the brightness or whiteness results. The cut enamel side of the tooth sample was then sonicated in DI water and polished on diamond slurry smooth out the surface for imaging. The sample was then cut into quarters, with the lower half selected for a tetracycline experiment because of the even distribution of dentin coloring in the lower quarters of the tooth sample. The samples were then stained in 10 mg/mL tetracycline solution for five days.
During mineralization, using a 96-well plate, one of the stained halves was stored in […] Tris (24 mM) as a negative control, and the experimental sample was incubated in 150 μL shADP5 (0.8 mM) at 37° C. for 10 minutes. […]

SYENSHSQAINVDRT [shADP5, 15-amino acid long amelogenin-derived peptide, shortened human ADP5]
Mean Pixel Intensity (MPI) compared with original and stained tooth ([1]; ImageJ line profile, after staining and remineralization): higher MPI than the original tooth and the tooth after staining
tooth color compared with control ([1]; tea-stained human tooth quarter, peptide 10 min 37° C., then CaCl2/KH2PO4 16 hours): lighter in color than the left quarter (control)
whiteness of the stained tooth [2]: improves with repeated rounds of remineralization
